Data taken from ChEMBL document CHEMBL1122784, “Antitumor imidazotetrazines. 1. Synthesis and chemistry of 8-carbamoyl-3-(2-chloroethyl)imidazo[5,1-d]-1,2,3,5-tetrazin-4(3 H)-one , a novel broad-spectrum antitumor agent” (J Med Chem, 1984).

Tests used:
[1] = Half-life period in 95% ethanol in dark at 28 degrees celsius.; assay type: ADME
[2] = Half-life period in 95% ethanol in diffuse laboratory light at 28 degrees celsius.; assay type: ADME
Mus musculus [3] = assay: Compound was tested for mortality in L1210 leukemia implanted BDF1 mice on day 0 after ip administration of 10 mg/kg/day on day 1 out of 5 mice; assay type: functional; details: route intraperitoneal
Mus musculus [4] = assay: Compound was tested for mortality in L1210 leukemia implanted BDF1 mice on day 0 after ip administration of 10 mg/kg/day on days 1-5 out of 5 mice; assay type: functional; details: route intraperitoneal
Mus musculus [5] = assay: Compound was evaluated for %T/C in L1210 leukemia implanted BDF1 mice on day 0 after ip administration of 20 mg/kg/day on days 1-5; assay type: functional; details: route intraperitoneal
Mus musculus [6] = assay: Compound was evaluated for %T/C in L1210 leukemia implanted BDF1 mice on day 0 after ip administration of 40 mg/kg/day on day 1; assay type: functional; details: route intraperitoneal
Mus musculus [7] = assay: Compound was evaluated for %T/C in L1210 leukemia implanted BDF1 mice on day 0 after ip administration of 5 mg/kg/day on day 1; assay type: functional; details: route intraperitoneal
Mus musculus [8] = assay: Compound was evaluated for %T/C in L1210 leukemia implanted BDF1 mice on day 0 after ip administration of 5 mg/kg/day on day 1-5; assay type: functional; details: route intraperitoneal
Mus musculus [9] = assay: Compound was evaluated for %T/C in P388 leukemia implanted BDF1 mice on day 0 after ip administration of 10 mg/kg/day on day 1; assay type: functional; details: route intraperitoneal
Mus musculus [10] = assay: Compound was evaluated for %T/C in P388 leukemia implanted BDF1 mice on day 0 after ip administration of 20 mg/kg/day on day 1; assay type: functional; details: route intraperitoneal
Mus musculus [11] = assay: Compound was evaluated for %T/C in P388 leukemia implanted BDF1 mice on day 0 after ip administration of 25 mg/kg/day on day 1-5; assay type: functional; details: route intraperitoneal
Mus musculus [12] = assay: Compound was evaluated for %T/C in P388 leukemia implanted BDF1 mice on day 0 after ip administration of 40 mg/kg/day on day 1; assay type: functional; details: route intraperitoneal
Mus musculus [13] = assay: Compound was evaluated for %T/C in P388 leukemia implanted BDF1 mice on day 0 after ip administration of 50 mg/kg/day on day 1-5; assay type: functional; details: route intraperitoneal
Mus musculus [14] = assay: Compound was evaluated for %T/C in P388 leukemia implanted BDF1 mice on day 0 after ip administration of 5 mg/kg/day on day 1; assay type: functional; details: route intraperitoneal
Mus musculus [15] = assay: Compound was evaluated for %T/C in P388 leukemia implanted BDF1 mice on day 0 after ip administration of 6.25 mg/kg/day on day 1-5; assay type: functional; details: route intraperitoneal
Mus musculus [16] = assay: Compound was evaluated for number of survivors in L1210 leukemia implanted BDF1 mice on day 0 after ip administration of 12.5 mg/kg/day on day 60 out of 6 mice; assay type: functional; details: route intraperitoneal
Mus musculus [17] = assay: Compound was evaluated for number of survivors in L1210 leukemia implanted BDF1 mice on day 0 after ip administration of 2.5 mg/kg/day on day 60 out of 5 mice; assay type: functional; details: route intraperitoneal
Mus musculus [18] = assay: Compound was evaluated for number of survivors in L1210 leukemia implanted BDF1 mice on day 0 after ip administration of 20 mg/kg/day on day 60 out of 5 mice; assay type: functional; details: route intraperitoneal
Mus musculus [19] = assay: Compound was evaluated for number of survivors in L1210 leukemia implanted BDF1 mice on day 0 after ip administration of 25 mg/kg/day on day 60 out of 6 mice; assay type: functional; details: route intraperitoneal
Mus musculus [20] = assay: Compound was evaluated for number of survivors in L1210 leukemia implanted BDF1 mice on day 0 after ip administration of 50 mg/kg/day on day 60 out of 6 mice; assay type: functional; details: route intraperitoneal
Mus musculus [21] = assay: Compound was evaluated for number of survivors in L1210 leukemia implanted BDF1 mice on day 0 after ip administration of 5 mg/kg/day on day 60 out of 5 mice; assay type: functional; details: route intraperitoneal
Mus musculus [22] = assay: Compound was tested for mortality in L1210 leukemia implanted BDF1 mice on day 0 after ip administration of 2.5 mg/kg/day on day 1-5 out of 5 mice; assay type: functional; details: route intraperitoneal
Mus musculus [23] = assay: Compound was tested for mortality in L1210 leukemia implanted BDF1 mice on day 0 after ip administration of 20 mg/kg/day on day 1 out of 5 mice; assay type: functional; details: route intraperitoneal
Mus musculus [24] = assay: Compound was evaluated for %T/C in L1210 leukemia implanted BDF1 mice on day 0 after ip administration of 3.12 mg/kg/day on day 1-9; assay type: functional; details: route intraperitoneal
Mus musculus [25] = assay: Compound was evaluated for %T/C in L1210 leukemia implanted BDF1 mice on day 0 after ip administration of 10 mg/kg/day on day 1; assay type: functional; details: route intraperitoneal
Mus musculus [26] = assay: Compound was evaluated for %T/C in L1210 leukemia implanted BDF1 mice on day 0 after ip administration of 20 mg/kg/day on day 1; assay type: functional; details: route intraperitoneal
Mus musculus [27] = assay: Compound was tested for mortality in P388 leukemia implanted BDF1 mice on day 0 after ip administration of 40 mg/kg/day on day 1 out of 5 mice; assay type: functional; details: route intraperitoneal
Mus musculus [28] = assay: Compound was tested for mortality in P388 leukemia implanted BDF1 mice on day 0 after ip administration of 5 mg/kg/day on day 1 out of 5 mice; assay type: functional; details: route intraperitoneal
Mus musculus [29] = assay: Compound was tested for mortality in P388 leukemia implanted BDF1 mice on day 0 after ip administration of 6.25 mg/kg/day on day 1-5 out of 6 mice; assay type: functional; details: route intraperitoneal
Mus musculus [30] = assay: Compound was tested for mortality in L1210 leukemia implanted BDF1 mice on day 0 after ip administration of 5 mg/kg/day on day 1 out of 5 mice; assay type: functional; details: route intraperitoneal
Mus musculus [31] = assay: Compound was tested for mortality in L1210 leukemia implanted BDF1 mice on day 0 after ip administration of 6.25 mg/kg/day on day 1-9 out of 6 mice; assay type: functional; details: route intraperitoneal
Mus musculus [32] = assay: Compound was tested for mortality in L1210 leukemia implanted BDF1 mice on day 0 after ip administration of 80 mg/kg/day on day 1 out of 5 mice; assay type: functional; details: route intraperitoneal
Mus musculus [33] = assay: Compound was evaluated for number of survivors in L1210 leukemia implanted BDF1 mice on day 0 after ip administration of 80 mg/kg/day on day 60 out of 5 mice; assay type: functional; details: route intraperitoneal
Mus musculus [34] = assay: Compound was evaluated for number of survivors in P388 leukemia implanted BDF1 mice on day 0 after ip administration of 20 mg/kg/day on day 60 out of 5 mice; assay type: functional; details: route intraperitoneal
Mus musculus [35] = assay: Compound was evaluated for number of survivors in P388 leukemia implanted BDF1 mice on day 0 after ip administration of 25 mg/kg/day on day 60 out of 6 mice; assay type: functional; details: route intraperitoneal
Mus musculus [36] = assay: Compound was evaluated for number of survivors in P388 leukemia implanted BDF1 mice on day 0 after ip administration of 6.25 mg/kg/day on day 60 out of 6 mice; assay type: functional; details: route intraperitoneal
Mus musculus [37] = assay: Compound was evaluated for number of survivors in P388 leukemia implanted BDF1 mice on day 0 after ip administration of 7.5 mg/kg/day on day 60 out of 5 mice; assay type: functional; details: route intraperitoneal
Mus musculus [38] = assay: Compound was evaluated for number of survivors in P388 leukemia implanted BDF1 mice on day 0 after ip administration of 80 mg/kg/day on day 60 out of 5 mice; assay type: functional; details: route intraperitoneal
Mus musculus [39] = assay: Compound was tested for mortality in P388 leukemia implanted BDF1 mice on day 0 after ip administration of 10 mg/kg/day on day 1-5 out of 5 mice; assay type: functional; details: route intraperitoneal

**Q.** Which half-life [1] does the source give for `NC(=O)c1ncn2c(=O)n(CCCl)nnc12` [MITOZOLOMIDE] here?
**A.** 1.2 h

**Q.** What about the half-life [2] of the same molecule?
**A.** 1.17 h

**Q.** And the Mortality (Mus musculus [3])?
**A.** 0

**Q.** And the Mortality (Mus musculus [4])?
**A.** 0

**Q.** What about the T/C (Mus musculus [5]) of the same molecule?
**A.** >577%

**Q.** And the T/C (Mus musculus [6])?
**A.** >740%

**Q.** And the T/C (Mus musculus [7])?
**A.** 111%

**Q.** What about the T/C (Mus musculus [8]) of the same molecule?
**A.** 139%

**Q.** What about the T/C (Mus musculus [9]) of the same molecule?
**A.** 164%

**Q.** And the T/C (Mus musculus [10])?
**A.** >600%

**Q.** What about the T/C (Mus musculus [11]) of the same molecule?
**A.** 387%

**Q.** And the T/C (Mus musculus [12])?
**A.** >600%

**Q.** What about the T/C (Mus musculus [13]) of the same molecule?
**A.** 153%

**Q.** And the T/C (Mus musculus [14])?
**A.** 132%

**Q.** And the T/C (Mus musculus [15])?
**A.** 180%

**Q.** And the Survivors (Mus musculus [16])?
**A.** 6

**Q.** What about the Survivors (Mus musculus [17]) of the same molecule?
**A.** 0

**Q.** And the Survivors (Mus musculus [18])?
**A.** 5

**Q.** And the Survivors (Mus musculus [19])?
**A.** 6

**Q.** What about the Survivors (Mus musculus [20]) of the same molecule?
**A.** 0

**Q.** And the Survivors (Mus musculus [21])?
**A.** 0

**Q.** What about the Mortality (Mus musculus [22]) of the same molecule?
**A.** 0

**Q.** What about the Mortality (Mus musculus [23]) of the same molecule?
**A.** 0

**Q.** And the T/C (Mus musculus [24])?
**A.** 147%

**Q.** What about the T/C (Mus musculus [25]) of the same molecule?
**A.** 131%

**Q.** What about the T/C (Mus musculus [26]) of the same molecule?
**A.** 198%

**Q.** What about the Mortality (Mus musculus [27]) of the same molecule?
**A.** 0

**Q.** And the Mortality (Mus musculus [28])?
**A.** 0

**Q.** And the Mortality (Mus musculus [29])?
**A.** 1

**Q.** And the Mortality (Mus musculus [30])?
**A.** 0

**Q.** What about the Mortality (Mus musculus [31]) of the same molecule?
**A.** 0

**Q.** What about the Mortality (Mus musculus [32]) of the same molecule?
**A.** 0

**Q.** And the Survivors (Mus musculus [33])?
**A.** 0

**Q.** And the Survivors (Mus musculus [34])?
**A.** 5

**Q.** And the Survivors (Mus musculus [35])?
**A.** 4

**Q.** What about the Survivors (Mus musculus [36]) of the same molecule?
**A.** 0

**Q.** What about the Survivors (Mus musculus [37]) of the same molecule?
**A.** 5

**Q.** What about the Survivors (Mus musculus [38]) of the same molecule?
**A.** 0

**Q.** What about the Mortality (Mus musculus [39]) of the same molecule?
**A.** 0
